# Columns and labels:
# [1] = system: H2122 cells; test: Covalent labelling of proteins in H2122 cells (click to fluorescent azide, SDS-PAGE); assay type: cell-based, human
# Description: FIG. 7A. […] H2122 cells were treated with the indicated concentrations of SW208108 for 4 h followed by irradiation with a UV light or no irradiation. Cells were then lysed, protein was precipitated, resuspended in buffer and conjugated to an azide-containing dye using Cu catalysis following standard protocols. Samples were resolved under denaturing conditions on an SDS-PAGE gel and visualized using a fluorescent imager at the indicated wavelengths.
# FIG. 7B. Chromone and Benzothiazole alkynes, like the oxalamide, covalently bind proteins of similar molecular weight. The arrows indicate a 37 kD and 30 kD band common to all three scaffolds.
# To identify the target of the benzothiazoles, oxalamides, N-acyl ureas and chromones, we generated a potent oxalamide, SW208108, that features both a “crosslinker” and a “tag”. Upon exposure to UV light, the benzophenone group becomes reactive and was anticipated to crosslink to a nearby amino acid, and the alkyne serves as a “tag” by its capacity to react with an azide through “click chemistry”. Combining these features, we treated H2122 cells with various concentrations of SW208108 and either cultured them normally (“−UV”) or irradiated them briefly with UV light (“+UV”). Subsequently, we “clicked” the resulting lysate to a fluorescent azide, and detected multiple fluorescently labeled proteins on SDS-PAGE (FIG. 7A). […]
# [2] = target: T1, HMOX2 (Homo sapiens, UniProt P30519); test: Immunoprecipitation of SW208108-bound protein with anti-HMOX2; assay type: binding
# T1 construct: endogenous in cells; host or cells: H2122 cells (homogenate / lysate)
# Source text: FIG. 7M. HMOX2 binds to SW208108 and is partially competed by an active competitor. Lysates collected from H2122 cells treated with SW208108 with or without competitor were immunoprecipitated with either IgG or anti-HMOX2 and then “clicked” to a dye-azide (as described in FIG. 7A). HMOX2 binds to SW208108 and binding is partially diminished in the presence of a competitor.
# However, when HO2 was knocked out from H2122 cells using Crisper technology (FIG. 7O), no toxicity was observed, and SW208108 and related compounds retained toxicity towards H2122 cells (FIG. 7P). We conclude that HO2 is not required for cell survival or for the cytotoxicity of the selective toxins.
# [3] = system: 4 sensitive cell lines; test: Rescue of toxicity by sodium oleate in 4 sensitive lines; assay type: cell-based, human; details: 100 μM sodium oleate
# Source text: FIGS. 8D-8E. Sodium oleate rescues the toxicity of SCD1 inhibitors.
# Consistent with this interpretation, the toxicity of SW208108 against 4 sensitive cell lines was fully rescued by adding sodium oleic acid to the culture media (FIG. 8D). Moreover, a commercially available SCD1 inhibitor (Cayman chemicals), originally described by Liu et al (compound 28c in the Journal of Medicinal Chemistry, 2007, 50, 3086-3100) was likewise toxic to the same 4 non-small cell lung cancer cell lines (FIG. 8E).
# [4] = target: T2, SCD1 (Homo sapiens, UniProt O00767); test: Immunoprecipitation of SW208108-bound protein with anti-SCD1; assay type: binding; set-up: The fluorescent bands confirm that p30 and p37 represent isoforms of SCD1; endogenous in cells; host or cells: H2122 cells
# T2 sequence (O00767 1-359): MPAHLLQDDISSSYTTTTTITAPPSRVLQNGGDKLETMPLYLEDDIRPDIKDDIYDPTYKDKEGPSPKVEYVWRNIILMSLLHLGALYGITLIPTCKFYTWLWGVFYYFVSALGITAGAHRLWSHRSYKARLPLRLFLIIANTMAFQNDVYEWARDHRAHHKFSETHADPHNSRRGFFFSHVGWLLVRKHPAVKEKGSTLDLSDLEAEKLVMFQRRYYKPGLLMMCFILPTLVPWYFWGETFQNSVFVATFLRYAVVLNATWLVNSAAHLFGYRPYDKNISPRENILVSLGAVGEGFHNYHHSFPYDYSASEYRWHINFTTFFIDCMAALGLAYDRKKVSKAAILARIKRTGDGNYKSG
# Description: FIG. 7L. Antibodies against SCD1 (Pierce) immunoprecipitate SW208108-bound protein. Samples were prepared as in FIG. 7A, and immunoprecipitated with either anti-SCD1 or IgG. The fluorescent bands confirm that p30 and p37 represent isoforms of SCD1.
# SCD1 is the functional target of the oxalamides, benzothiazoles, chromones, and related derivatives. Covalent binding of SW208108 to SCD1 was confirmed by incubating cells in the presence of SW208108, lysing them, immunoprecipitating with antibodies to SCD1, and then clicking drug-bound proteins to a dye.
# [5] = target: T2, SCD1; test: Cross-linking of SW208108 in 12 NSCLC cell lines; assay type: cell-based
# Description: FIGS. 9A-9D. Selective toxins selectively cross-link to SCD1 in sensitive cells and are selectively metabolized in sensitive cells. FIG. 9A. 12 NSCLC cell lines were incubated with SW208108 and processed as described in FIG. 7. […] FIG. 9B. […] FIG. 9C. […] Demethylation is the anticipated mode of metabolism. FIG. 9D. A representative benzothiazole is demethylated by sensitive cell lines. […] Values in FIGS. 9C and 9D were obtained by tandem HPLC/MS/MS.
# In this context, 12 different NSCLC cell lines were treated with SW208108, lysed and clicked to a dye as previously described. […] To understand how SW208108 could selectively cross-link to SCD1 within some cell lines that expressed the enzyme but not other cell lines that expressed the same enzyme, we investigated the stability of a representative oxalamide in the presence of a sensitive and insensitive cell line. […] Similarly, a representative benzothiazole was metabolized by H2122 cells through, at least in part, the loss of the O-methyl group (FIG. 9D).
# T1 sequence (P30519 whole entry): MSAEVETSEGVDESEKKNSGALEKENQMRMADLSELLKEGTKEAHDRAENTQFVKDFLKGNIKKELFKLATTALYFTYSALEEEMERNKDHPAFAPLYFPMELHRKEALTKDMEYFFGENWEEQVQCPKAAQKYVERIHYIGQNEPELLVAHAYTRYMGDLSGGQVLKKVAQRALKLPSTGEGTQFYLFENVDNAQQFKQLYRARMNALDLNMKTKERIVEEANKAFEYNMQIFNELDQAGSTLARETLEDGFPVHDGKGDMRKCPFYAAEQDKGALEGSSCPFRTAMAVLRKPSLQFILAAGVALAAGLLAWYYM
compound,measurement,setting,value
C#CCOc1ccc(C(=O)c2ccc(NC(=O)C(=O)NCCc3ccc(OC)cc3)cc2)cc1 [SW208108],"covalent modification of proteins (p37, p30) in H2122 cells without UV",[1],covalently cross links proteins
same,covalent binding to HO2 (HMOX2),[2],covalently bound
same,toxicity against 4 sensitive cell lines with sodium oleic acid,[3],fully rescued
same,covalent binding to SCD1 (immunoprecipitation),[4],confirmed
same,cross linked SCD1 bands in 12 NSCLC cell lines,[5],Prominent cross linked bands

# Source: patent publication US9789096B2, “Methods and compositions for selective and targeted cancer therapy” (Board of Regents of the University of Texas System, priority 2013, dated 2017)
